Measurements from patent publication US10538498B2, “1,3,4-oxadiazole sulfonamide derivative compounds as histone deacetylase 6 inhibitor, and the pharmaceutical composition comprising the same” (Chong Kun Dang Pharmaceutical Corp., priority 2015, dated 2020).

Target: T1, human recombinant HDAC6 (Homo sapiens, UniProt Q9UBN7)
T1 construct: purchased Calbiochem 382180
T1 sequence (Q9UBN7 1-1215): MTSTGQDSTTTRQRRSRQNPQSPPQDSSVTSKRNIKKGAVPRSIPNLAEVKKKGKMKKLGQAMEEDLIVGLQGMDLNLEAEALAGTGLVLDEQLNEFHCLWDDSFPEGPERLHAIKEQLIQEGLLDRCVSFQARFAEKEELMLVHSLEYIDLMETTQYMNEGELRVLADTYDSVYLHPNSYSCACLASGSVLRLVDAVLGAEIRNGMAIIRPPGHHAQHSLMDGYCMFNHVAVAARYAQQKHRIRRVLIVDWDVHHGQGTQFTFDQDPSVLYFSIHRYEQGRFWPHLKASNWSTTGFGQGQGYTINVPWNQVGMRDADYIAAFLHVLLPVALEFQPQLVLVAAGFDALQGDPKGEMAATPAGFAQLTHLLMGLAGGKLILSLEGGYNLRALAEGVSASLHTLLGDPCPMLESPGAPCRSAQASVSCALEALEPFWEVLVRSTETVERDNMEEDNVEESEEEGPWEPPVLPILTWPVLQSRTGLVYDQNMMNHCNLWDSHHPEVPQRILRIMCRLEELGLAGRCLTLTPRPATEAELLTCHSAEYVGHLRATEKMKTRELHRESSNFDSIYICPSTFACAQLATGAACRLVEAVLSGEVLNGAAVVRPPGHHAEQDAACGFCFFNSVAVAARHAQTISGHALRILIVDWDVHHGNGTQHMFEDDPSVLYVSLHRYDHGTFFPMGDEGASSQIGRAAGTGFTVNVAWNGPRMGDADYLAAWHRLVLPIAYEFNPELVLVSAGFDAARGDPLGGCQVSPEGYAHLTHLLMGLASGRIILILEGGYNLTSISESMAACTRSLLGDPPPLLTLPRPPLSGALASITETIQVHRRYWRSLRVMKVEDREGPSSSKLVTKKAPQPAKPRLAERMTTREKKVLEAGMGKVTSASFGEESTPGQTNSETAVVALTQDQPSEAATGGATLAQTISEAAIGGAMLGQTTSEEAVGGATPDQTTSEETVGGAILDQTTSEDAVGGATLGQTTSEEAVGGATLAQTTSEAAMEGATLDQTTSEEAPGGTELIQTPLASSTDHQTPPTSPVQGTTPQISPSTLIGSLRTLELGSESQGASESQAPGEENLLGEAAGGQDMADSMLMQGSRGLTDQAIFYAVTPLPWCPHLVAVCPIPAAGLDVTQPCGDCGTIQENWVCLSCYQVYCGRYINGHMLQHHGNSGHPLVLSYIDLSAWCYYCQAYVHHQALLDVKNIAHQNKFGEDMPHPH
Assay: HDAC6 enzyme activity inhibition assay (HDAC Fluorimetric Drug Discovery Kit)
Assay type: biochemical
Conditions: for HDAC6 selectivity (fold): HDAC1 vs HDAC6; for IC50: same protocol as the HDAC1 enzyme activity test
How it was run: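 IC50s derived from fluorescence (Ex 360, Em 460) read after a 30-min developer step. Beforehand, compounds in 5-fold dilution series reacted 60 min at 30° C with 0.3 μg human recombinant enzyme and 10 μM Fluor de Lys-SIRT1 substrate.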

HDAC6 selectivity (fold) | IC50 [nM] | SMILES
1786 | 56 | CS(=O)(=O)N(Cc1ccc(-c2nnc(C(F)F)o2)cc1F)C1CCCCC1 [Compound 11292, N-cyclohexyl-N-(4-(5-(difluoromethyl)-1,3,4-oxadiazol-2-yl)-2-fluorobenzyl)methanesulfonamide]
909 | 110 | CS(=O)(=O)N(Cc1ccc(-c2nnc(C(F)(F)F)o2)cn1)c1cccc(C(F)(F)F)c1 [Compound 11323, N-((5-(5-(trifluoromethyl)-1,3,4-oxadiazol-2-yl)pyridin-2-yl)methyl)-N-(3-(trifluoromethyl)phenyl)methanesulfonamide]
4762 | 21 | CS(=O)(=O)N(Cc1ccc(-c2nnc(C(F)F)o2)cn1)c1cccc(C(F)(F)F)c1 [Compound 11324, N-((5-(5-(difluoromethyl)-1,3,4-oxadiazol-2-yl)pyridin-2-yl)methyl)-N-(3-(trifluoromethyl)phenyl)methanesulfonamide]
195 | 513 | CC(C)(C)OC(=O)N1CCC(N(Cc2ccc(-c3nnc(C(F)F)o3)cc2F)S(C)(=O)=O)CC1 [Compound 11338, tert-butyl 4-(N-(4-(5-(difluoromethyl)-1,3,4-oxadiazol-2-yl)-2-fluorobenzyl)methylsulfonamido)piperidine-1-carboxylate]
3571 | 28 | CS(=O)(=O)N(Cc1ccc(-c2nnc(C(F)F)o2)cn1)c1ccc2c(c1)OCO2 [Compound 11345, N-(benzo[d][1,3]dioxol-5-yl)-N-((5-(5-(difluoromethyl)-1,3,4-oxadiazol-2-yl)pyridin-2-yl)methyl)methanesulfonamide]
4348 | 23 | COc1ccc(N(Cc2ccc(-c3nnc(C(F)F)o3)cn2)S(C)(=O)=O)cc1 [Compound 11346, N-((5-(5-(difluoromethyl)-1,3,4-oxadiazol-2-yl)pyridin-2-yl)methyl)-N-(4-methoxyphenyl)methanesulfonamide]
971 | 103 | CS(=O)(=O)N(Cc1ccc(-c2nnc(C(F)F)o2)cc1)c1ccc(Br)cn1 [Compound 11347, N-(5-bromopyridin-2-yl)-N-(4-(5-(difluoromethyl)-1,3,4-oxadiazol-2-yl)benzyl)methanesulfonamide]
758 | 132 | CS(=O)(=O)N(Cc1ccc(-c2nnc(C(F)F)o2)cc1)c1ccc(Cl)cn1 [Compound 11348]
10000 | 10 | O=S1(=O)CCC(S(=O)(=O)N(Cc2ccc(-c3nnc(C(F)F)o3)cn2)c2ccccc2)CC1 [Compound 11350, N-((5-(5-(difluoromethyl)-1,3,4-oxadiazol-2-yl)pyridin-2-yl)methyl)-N-phenyltetrahydro-2H-thiopyran-4-sulfonamide 1,1-dioxide]
1449 | 69 | CS(=O)(=O)N(Cc1ccc(-c2nnc(C(F)F)o2)cn1)C1CCCCC1 [Compound 11351, N-cyclohexyl-N-((5-(5-(difluoromethyl)-1,3,4-oxadiazol-2-yl)pyridin-2-yl)methyl)methanesulfonamide]
12500 | 8 | CS(=O)(=O)N(Cc1ccc(-c2nnc(C(F)F)o2)cn1)c1cccc(Cl)c1 [Compound 11352, N-(3-chlorophenyl)-N-((5-(5-(difluoromethyl)-1,3,4-oxadiazol-2-yl)pyridin-2-yl)methyl)methanesulfonamide]
3846 | 26 | CS(=O)(=O)N(Cc1ccc(-c2nnc(C(F)F)o2)cn1)c1cccnc1 [Compound 11353, N-((5-(5-(difluoromethyl)-1,3,4-oxadiazol-2-yl)pyridin-2-yl)methyl)-N-(pyridin-3-yl)methanesulfonamide]
12500 | 8 | CS(=O)(=O)N(Cc1ccc(-c2nnc(C(F)F)o2)cn1)c1cccc(Br)c1 [Compound 11354, N-(3-bromophenyl)-N-((5-(5-(difluoromethyl)-1,3,4-oxadiazol-2-yl)pyridin-2-yl)methyl)methanesulfonamide]
6250 | 16 | Cc1cccc(N(Cc2ccc(-c3nnc(C(F)F)o3)cn2)S(C)(=O)=O)c1 [Compound 11355, N-((5-(5-(difluoromethyl)-1,3,4-oxadiazol-2-yl)pyridin-2-yl)methyl)-N-(m-tolyl)methanesulfonamide]
9091 | 11 | CCS(=O)(=O)N(Cc1ccc(-c2nnc(C(F)F)o2)cn1)c1cccc(Br)c1 [Compound 11366, N-(3-bromophenyl)-N-((5-(5-(difluoromethyl)-1,3,4-oxadiazol-2-yl)pyridin-2-yl)methyl)ethanesulfonamide]
6250 | 16 | CN1CCC(S(=O)(=O)N(Cc2ccc(-c3nnc(C(F)F)o3)cn2)c2ccccc2)CC1 [Compound 11367, N-((5-(5-(difluoromethyl)-1,3,4-oxadiazol-2-yl)pyridin-2-yl)methyl)-1-methyl-N-phenylpiperidine-4-sulfonamide]
6667 | 15 | CCN1CCC(S(=O)(=O)N(Cc2ccc(-c3nnc(C(F)F)o3)cn2)c2ccccc2)CC1 [Compound 11368, N-((5-(5-(difluoromethyl)-1,3,4-oxadiazol-2-yl)pyridin-2-yl)methyl)-1-ethyl-N-phenylpiperidine-4-sulfonamide]
11111 | 9 | CN1CCC(S(=O)(=O)N(Cc2ccc(-c3nnc(C(F)F)o3)cc2F)c2ccccc2)CC1 [Compound 11372, N-(4-(5-(difluoromethyl)-1,3,4-oxadiazol-2-yl)-2-fluorobenzyl)-1-methyl-N-phenylpiperidine-4-sulfonamide]
10000 | 10 | CCN1CCC(S(=O)(=O)N(Cc2ccc(-c3nnc(C(F)F)o3)cc2F)c2ccccc2)CC1 [Compound 11373, N-(4-(5-(difluoromethyl)-1,3,4-oxadiazol-2-yl)-2-fluorobenzyl)-1-ethyl-N-phenylpiperidine-4-sulfonamide]
4545 | 22 | CC(C)(O)CN1CCC(S(=O)(=O)N(Cc2ccc(-c3nnc(C(F)F)o3)cc2F)c2ccccc2)CC1 [Compound 11377, N-(4-(5-(difluoromethyl)-1,3,4-oxadiazol-2-yl)-2-fluorobenzyl)-1-(2-hydroxy-2-methylpropyl)-N-phenylpiperidine-4-sulfonamide]
1316 | 76 | CCS(=O)(=O)N(Cc1ccc(-c2nnc(C(F)F)o2)cn1)c1ccc(CN2CCN(C(C)=O)CC2)cc1 [Compound 11386, N-(4-((4-acetylpiperazin-1-yl)methyl)phenyl)-N-((5-(5-(difluoromethyl)-1,3,4-oxadiazol-2-yl)pyridin-2-yl)methyl)ethanesulfonamide]
1087 | 92 | CCS(=O)(=O)N(Cc1ccc(-c2nnc(C(F)F)o2)cn1)c1ccc(CN2CCN(S(C)(=O)=O)CC2)cc1 [Compound 11387, N-((5-(5-(difluoromethyl)-1,3,4-oxadiazol-2-yl)pyridin-2-yl)methyl)-N-(4-((4-(methylsulfonyl)piperazin-1-yl)methyl)phenyl)ethanesulfonamide]
1333 | 75 | CCS(=O)(=O)N(Cc1ccc(-c2nnc(C(F)F)o2)cn1)c1cccc(CN2CCN(C(C)=O)CC2)c1 [Compound 11388, N-(3-((4-acetylpiperazin-1-yl)methyl)phenyl)-N-((5-(5-(difluoromethyl)-1,3,4-oxadiazol-2-yl)pyridin-2-yl)methyl)ethanesulfonamide]
104 | 960 | CS(=O)(=O)N(Cc1ccc(-c2noc(C(F)(F)F)n2)cc1)Cc1ccc(-c2nnc(C(F)F)o2)cc1F [Compound 11389, N-(4-(5-(difluoromethyl)-1,3,4-oxadiazol-2-yl)-2-fluorobenzyl)-N-(4-(5-(trifluoromethyl)-1,2,4-oxadiazol-3-yl)benzyl)methanesulfonamide]
